Measured values: article PMC10383271

Assays:
[1] = molecular target: human serum albumin (HSA) (Homo sapiens, UniProt P02768); assay: Fluorescence quenching titration of HSA; settings: for Kd: logKb; for ΔG°: one value per compound, temperature not given; for ΔH° / ΔS°: van't Hoff
[2] = system: alpha-1-acid glycoprotein (AAG); assay: Binding site study with AAG, replacement of marker quinaldine red (fluorescence); set-up: species or system human
Text: Orosomucoid has seven binding sites in its molecule, but there is only one site where the drugs bind. A very good fluorescent marker for binding site study in the case of AAG is quinalidine red (QR).
We used a 500 nm excitation wavelength. In these conditions, the maximum emission spectra were located near 600 nm. We increased the molar ratio of the reactants from 1:1:0 to 1:1:10. The intensity of fluorescence decreases during the addition of successive portions of the analyzed compounds.
Binding site studies were conducted using fluorescence measurements. Spectra were recorded on Cary Eclipse 500 spectrophotometer (Agilent, Santa Clara, CA, USA) at room temperature with a 10 mm path length. HSA and AAG solutions were prepared in phosphate buffer, giving concentrations equal to 1 × 10^−6 M. The concentrations of dansylated-L-glycine (DanG), dansylated-L-phenylalanine (DanF), and quinaldine red (QR) were 1 × 10^−3 M. The densylated amino acids and QR solutions were prepared in ethanol. For the HSA-dansylated amino acids studies, the excitation wavelength was equal to 350 nm, while for the AAG-QR system, it was 500 nm, respectively. Then, 3 mL of protein was mixed with 3 µL of marker solution, giving a molar ratio of 1 to 1. Next, successive portions of the analyzed compounds were added to the mixtures prepared in this way, obtaining the appropriate protein-to-compound molar ratios, amounting to 1:0, 1:0.5, 1:1, 1:2, 1:3, 1:4, 1:5, and 1:10 for the HSA-densylated amino acids systems, and 1:0, 1:0.5, 1:1, 1:2, 1:3, 1:4, 1:6, 1:8, and 1:10 for the AAG-QR systems.

15-LOX = molecular target: T1, 15-LOX (Glycine max, UniProt P08170); assay: 15-LOX inhibition, Cayman's Lipoxygenase Inhibitor Screening Assay Kit
T1 sequence (P08170 1-839): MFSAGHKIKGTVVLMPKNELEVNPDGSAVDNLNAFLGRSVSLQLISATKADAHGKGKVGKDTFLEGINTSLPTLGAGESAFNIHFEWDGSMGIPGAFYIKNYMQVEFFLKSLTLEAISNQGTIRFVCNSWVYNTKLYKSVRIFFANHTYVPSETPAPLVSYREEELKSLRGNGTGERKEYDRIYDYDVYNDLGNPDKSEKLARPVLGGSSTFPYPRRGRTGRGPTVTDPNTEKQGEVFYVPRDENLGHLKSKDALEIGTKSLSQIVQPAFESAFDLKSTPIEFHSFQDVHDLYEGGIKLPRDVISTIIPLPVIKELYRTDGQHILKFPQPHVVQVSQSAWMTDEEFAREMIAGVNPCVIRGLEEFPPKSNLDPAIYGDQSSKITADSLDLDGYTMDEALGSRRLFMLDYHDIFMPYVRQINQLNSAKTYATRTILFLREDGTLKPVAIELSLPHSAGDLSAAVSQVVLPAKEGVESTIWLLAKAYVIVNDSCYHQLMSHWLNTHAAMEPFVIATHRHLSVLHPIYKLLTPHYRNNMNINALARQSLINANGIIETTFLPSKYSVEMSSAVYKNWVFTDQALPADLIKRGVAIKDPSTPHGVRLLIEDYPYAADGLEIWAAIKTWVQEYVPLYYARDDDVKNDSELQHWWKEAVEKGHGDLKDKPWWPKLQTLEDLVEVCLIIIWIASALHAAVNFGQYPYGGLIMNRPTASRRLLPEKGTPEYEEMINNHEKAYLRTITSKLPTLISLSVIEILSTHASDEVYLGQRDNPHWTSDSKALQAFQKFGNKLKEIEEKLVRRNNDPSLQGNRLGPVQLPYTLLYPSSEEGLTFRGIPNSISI

[3] = system: alpha-1-acid glycoprotein (AAG); assay: Fluorescence quenching titration of AAG
Method: Aex is the absorbance at excitation wavelengths, and Aem is the absorbance at emission wavelengths.
The correlation between the stability constant of complexes Kb and standard thermodynamic parameters enthalpy change (ΔH°), and entropy change (ΔS°) was determined by the van’t Hoff Equation (4):(4) logKb=−∆H^°/RT+∆S^°/R where R is the universal gas constant; the free energy change (ΔG°) can be calculated by following Equation (5):(5) ∆G^°=∆H^°−T∆S^°=−RTlnKb
The fluorescence study was performed on a Cary Eclipse 500 spectrophotometer (Agilent, Santa Clara, CA, USA). The spectra were recorded in a cuvette with 10 mm path length at an emission range of 300–500 nm, and the excitation wavelength was 280 nm.

COX-2 = molecular target: T2, COX-2 (Homo sapiens, UniProt P35354); assay: COX-2 inhibition, Cayman's COX Colorimetric Inhibitor Screening Assay Kit; settings: for Selectivity Index (SI): COX-2 IC50/COX-1 IC50
T2 sequence (P35354 18-604): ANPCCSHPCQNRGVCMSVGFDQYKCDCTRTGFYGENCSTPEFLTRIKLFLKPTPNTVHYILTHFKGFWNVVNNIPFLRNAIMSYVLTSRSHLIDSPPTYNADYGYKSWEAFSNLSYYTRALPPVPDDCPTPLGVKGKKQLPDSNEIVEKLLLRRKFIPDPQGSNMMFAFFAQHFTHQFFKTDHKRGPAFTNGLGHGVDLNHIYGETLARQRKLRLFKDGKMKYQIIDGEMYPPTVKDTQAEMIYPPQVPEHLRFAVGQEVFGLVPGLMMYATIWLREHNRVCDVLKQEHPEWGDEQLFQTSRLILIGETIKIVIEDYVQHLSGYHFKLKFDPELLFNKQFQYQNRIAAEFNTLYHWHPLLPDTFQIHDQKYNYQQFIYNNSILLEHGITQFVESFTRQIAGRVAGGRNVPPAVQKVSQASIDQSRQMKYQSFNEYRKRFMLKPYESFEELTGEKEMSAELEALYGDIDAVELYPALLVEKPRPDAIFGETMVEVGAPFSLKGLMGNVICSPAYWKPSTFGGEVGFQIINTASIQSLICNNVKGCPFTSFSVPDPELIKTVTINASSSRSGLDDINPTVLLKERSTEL

[4] = AAG:marker:compound molar ratio 1:1:0.5
[5] = AAG:marker:compound molar ratio 1:1:1
[6] = AAG:marker:compound molar ratio 1:1:2
[7] = AAG:marker:compound molar ratio 1:1:3
[8] = AAG:marker:compound molar ratio 1:1:4
[9] = AAG:marker:compound molar ratio 1:1:6
[10] = AAG:marker:compound molar ratio 1:1:8
[11] = AAG:marker:compound molar ratio 1:1:10

human serum albumin (HSA), sequence (P02768 25-609): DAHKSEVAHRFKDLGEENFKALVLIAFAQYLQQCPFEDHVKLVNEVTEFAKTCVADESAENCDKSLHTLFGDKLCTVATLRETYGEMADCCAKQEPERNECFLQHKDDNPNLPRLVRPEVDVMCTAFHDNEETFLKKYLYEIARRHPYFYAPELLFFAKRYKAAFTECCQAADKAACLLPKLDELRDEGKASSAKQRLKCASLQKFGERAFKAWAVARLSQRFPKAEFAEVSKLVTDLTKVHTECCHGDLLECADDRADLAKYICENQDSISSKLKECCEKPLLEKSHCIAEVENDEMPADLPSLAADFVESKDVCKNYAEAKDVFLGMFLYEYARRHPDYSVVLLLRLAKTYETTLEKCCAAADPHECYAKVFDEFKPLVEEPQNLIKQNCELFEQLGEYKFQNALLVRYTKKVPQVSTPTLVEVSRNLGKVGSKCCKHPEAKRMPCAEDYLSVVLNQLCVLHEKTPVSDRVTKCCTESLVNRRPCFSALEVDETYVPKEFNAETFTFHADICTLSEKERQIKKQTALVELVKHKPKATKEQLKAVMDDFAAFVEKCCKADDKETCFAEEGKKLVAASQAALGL

Structure (SMILES) | Ksv ([1]; T 297 K) | kq ([1]; T 297 K) | n (number of binding sites) ([1]; T 297 K) | Ksv ([1]; T 303 K) | kq ([1]; T 303 K) | n (number of binding sites) ([1]; T 303 K) | Ksv ([1]; T 308 K) | kq ([1]; T 308 K) | n (number of binding sites) ([1]; T 308 K) | Kd ([1]; T 297 K) | Kd ([1]; T 303 K) | Kd ([1]; T 308 K) | ΔG° [1] | ΔH° [1] | ΔS° [1] | percentage of the replacement of QR [2, 4] | percentage of the replacement of QR [2, 5] | percentage of the replacement of QR [2, 6] | percentage of the replacement of QR [2, 7] | percentage of the replacement of QR [2, 8] | other results
CCCCn1c(C)c2c(OCC(=O)N/N=C/c3ccccc3)nn(C)c(=O)c2c1C [Compound 5a, N-[(Z/E)-benzylideneamino]-2-(6-butyl-3,5,7-trimethyl-4-oxo-pyrrolo[3,4-d]pyridazin-1-yl)oxy-acetamide] | 1.87 ± 0.04 × 10^5 dm^3·mol^−1 | 1.87 × 10^13 dm^3·mol^−1·s^−1 | 0.97 ± 0.04 | 1.71 ± 0.03 × 10^5 dm^3·mol^−1 | 1.71 × 10^13 dm^3·mol^−1·s^−1 | 0.95 ± 0.02 | 1.41 ± 0.03 × 10^5 dm^3·mol^−1 | 1.41 × 10^13 dm^3·mol^−1·s^−1 | 0.92 ± 0.02 | 7.94 µM | 11.2 µM | 20.9 µM | -6.979 kcal/mol | -16.14 kcal/mol | −129.11 J·mol^−1·K^−1 | 23.7% | 35.5% | 48.1% | 55.0% | 58.8% | percentage of the replacement of QR [2, 9]: 65.6%; percentage of the replacement of QR [2, 10]: 69.5%; percentage of the replacement of QR [2, 11]: 72.5%; IC50 (15-LOX): 12.9 ± 0.06 µM; Ksv ([3]; T 297 K): 9.04 ± 0.16 ·10^4 dm^3·mol^−1; kq ([3]; T 297 K): 9.04 ·10^12 dm^3·mol^−1·s^−1; logKb ([3]; T 297 K): 1.82 ± 0.12; Ksv ([3]; T 303 K): 3.15 ± 0.41 ·10^4 dm^3·mol^−1; kq ([3]; T 303 K): 3.15 ·10^12 dm^3·mol^−1·s^−1; logKb ([3]; T 303 K): 1.73 ± 0.27; Ksv ([3]; T 308 K): 1.11 ± 0.16 ·10^4 dm^3·mol^−1; kq ([3]; T 308 K): 1.11 ·10^12 dm^3·mol^−1·s^−1; logKb ([3]; T 308 K): 1.62 ± 0.26; IC50 (COX-2): 17.2 ± 1.4 µM; Selectivity Index (SI) (COX-2): 0.21
Cc1c2c(OCC(=O)N/N=C/c3ccccc3)nn(C)c(=O)c2c(C)n1-c1ccccc1 [Compound 5b, N-[(Z/E)-benzylideneamino]-2-(3,5,7-trimethyl-4-oxo-6-phenyl-pyrrolo[3,4-d]pyridazin-1-yl)oxy-acetamide] | 5.55 ± 0.33 × 10^5 dm^3·mol^−1 | 5.55 × 10^13 dm^3·mol^−1·s^−1 | 1.15 ± 0.06 | 5.26 ± 0.28 × 10^5 dm^3·mol^−1 | 5.26 × 10^13 dm^3·mol^−1·s^−1 | 1.10 ± 0.10 | 4.75 ± 0.23 × 10^5 dm^3·mol^−1 | 4.75 × 10^13 dm^3·mol^−1·s^−1 | 1.02 ± 0.05 | 0.263 µM | 0.49 µM | 1.45 µM | -9.001 kcal/mol | -27.77 kcal/mol | −264.38 J·mol^−1·K^−1 | 17.2% | 29.1% | 40.3% | 47.0% | 52.2% | percentage of the replacement of QR [2, 9]: 55.2%; percentage of the replacement of QR [2, 10]: 56.7%; percentage of the replacement of QR [2, 11]: 58.2%; IC50 (15-LOX): 13.5 ± 0.02 µM; Ksv ([3]; T 297 K): 10.41 ± 1.08 ·10^4 dm^3·mol^−1; kq ([3]; T 297 K): 10.41 ·10^12 dm^3·mol^−1·s^−1; logKb ([3]; T 297 K): 2.71 ± 0.21; Ksv ([3]; T 303 K): 11.41 ± 1.42 ·10^4 dm^3·mol^−1; kq ([3]; T 303 K): 11.41 ·10^12 dm^3·mol^−1·s^−1; logKb ([3]; T 303 K): 2.53 ± 0.15; Ksv ([3]; T 308 K): 8.39 ± 1.24 ·10^4 dm^3·mol^−1; kq ([3]; T 308 K): 8.39 ·10^12 dm^3·mol^−1·s^−1; logKb ([3]; T 308 K): 2.35 ± 0.12; IC50 (COX-2): 22.7 ± 1.2 µM; Selectivity Index (SI) (COX-2): 0.25
